Assay results published in ChEMBL document CHEMBL5316329, “Structure-Based Optimization of 2,4,5-Trisubstituted Pyrimidines as Potent HIV-1 Non-Nucleoside Reverse Transcriptase Inhibitors: Exploiting the Tolerant Regions of the Non-Nucleoside Reverse Transcriptase Inhibitors' Binding Pocket” (J Med Chem, 2023).

Assays:
[1] = test system: Human immunodeficiency virus 1; assay: Antiviral activity against NNRTI-resistant HIV-1 RES056 infected in human MT4 cells assessed as virus-induced cytopathicity treated for 5 days by MTT assay; assay type: functional, organism-based; details: Human immunodeficiency virus 1, RES056, MT4, 120 h
[2] = test system: Human immunodeficiency virus 1; assay: Antiviral activity against HIV-1 E138K mutant infected in human MT4 cells assessed as virus-induced cytopathicity treated for 5 days by MTT assay; assay type: functional, organism-based; details: Human immunodeficiency virus 1, MT4, 120 h; read-out: EC50
[3] = Selectivity index, ratio of CC50 for human MT4 cells to EC50 for NNRTI-resistant HIV-1 RES056 infected in human MT4 cells; assay type: toxicity, cell-based; details: read-out: Selectivity Index
[4] = Selectivity index, ratio of CC50 for human MT4 cells to EC50 for wild-type HIV-1 IIIB infected in human MT4 cells; assay type: toxicity, cell-based; details: read-out: Selectivity Index
[5] = target: Human immunodeficiency virus type 1 reverse transcriptase (Human immunodeficiency virus 1, UniProt Q72547); assay: Inhibition of wild-type HIV-1 reverse transcriptase assessed as inhibition of biotin-dUTP incorporation
[6] = test system: Human immunodeficiency virus 1; assay: Antiviral activity against HIV-1 harboring L100I mutant infected in human MT4 cells assessed as virus-induced cytopathicity treated for 5 days by MTT assay; assay type: functional, organism-based; details: Human immunodeficiency virus 1, MT4, 120 h; read-out: EC50
[7] = test system: Human immunodeficiency virus 1; assay: Antiviral activity against HIV-1 harboring K103N mutant infected in human MT4 cells assessed as virus-induced cytopathicity treated for 5 days by MTT assay; assay type: functional, organism-based; details: Human immunodeficiency virus 1, MT4, 120 h; read-out: EC50
[8] = Cytotoxicity against human MT4 cells assessed as reduction in cell viability treated for 5 days by MTT assay; assay type: toxicity, cell-based; details: time 5 day
[9] = test system: Human immunodeficiency virus 1; assay: Antiviral activity against wild-type HIV-1 IIIB infected in human MT4 cells assessed as virus-induced cytopathicity treated for 5 days by MTT assay; assay type: functional, organism-based; details: Human immunodeficiency virus 1, IIIB, MT4, 120 h
[10] = test system: Human immunodeficiency virus 1; assay: Antiviral activity against HIV-1 F227L/V106A mutant infected in human MT4 cells assessed as virus-induced cytopathicity treated for 5 days by MTT assay; assay type: functional, organism-based; details: Human immunodeficiency virus 1, MT4, 120 h; read-out: EC50
[11] = test system: Human immunodeficiency virus 1; assay: Antiviral activity against HIV-1 harboring Y181C mutant infected in human MT4 cells assessed as virus-induced cytopathicity treated for 5 days by MTT assay; assay type: functional, organism-based; details: Human immunodeficiency virus 1, MT4, 120 h; read-out: EC50
[12] = test system: Human immunodeficiency virus 1; assay: Antiviral activity against HIV-1 harboring Y188L mutant infected in human MT4 cells assessed as virus-induced cytopathicity treated for 5 days by MTT assay; assay type: functional, organism-based; details: Human immunodeficiency virus 1, MT4, 120 h; read-out: EC50
[13] = target: Cytochrome P450 2C9 (Homo sapiens, UniProt P11712); assay: Inhibition of CYP2C9 (unknown origin); assay type: ADME
Chain of Cytochrome P450 2C9 (P11712 whole entry): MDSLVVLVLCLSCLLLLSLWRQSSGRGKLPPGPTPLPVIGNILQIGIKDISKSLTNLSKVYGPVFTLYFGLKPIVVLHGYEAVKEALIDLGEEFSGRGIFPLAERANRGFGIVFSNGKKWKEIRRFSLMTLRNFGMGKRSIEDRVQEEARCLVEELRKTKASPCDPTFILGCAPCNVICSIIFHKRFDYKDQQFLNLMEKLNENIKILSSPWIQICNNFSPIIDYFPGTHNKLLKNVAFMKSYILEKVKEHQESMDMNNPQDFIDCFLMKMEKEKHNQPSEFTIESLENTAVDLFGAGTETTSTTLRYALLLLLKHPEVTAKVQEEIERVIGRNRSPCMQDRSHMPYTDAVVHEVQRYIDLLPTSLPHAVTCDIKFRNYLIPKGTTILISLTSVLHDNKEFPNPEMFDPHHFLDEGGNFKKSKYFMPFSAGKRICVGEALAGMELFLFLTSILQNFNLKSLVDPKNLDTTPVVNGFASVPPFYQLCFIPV

[14] = target: T1, Cytochrome P450 1A2 (Homo sapiens, UniProt P05177); assay: Inhibition of CYP1A2 (unknown origin); assay type: ADME
T1 sequence (P05177 whole entry): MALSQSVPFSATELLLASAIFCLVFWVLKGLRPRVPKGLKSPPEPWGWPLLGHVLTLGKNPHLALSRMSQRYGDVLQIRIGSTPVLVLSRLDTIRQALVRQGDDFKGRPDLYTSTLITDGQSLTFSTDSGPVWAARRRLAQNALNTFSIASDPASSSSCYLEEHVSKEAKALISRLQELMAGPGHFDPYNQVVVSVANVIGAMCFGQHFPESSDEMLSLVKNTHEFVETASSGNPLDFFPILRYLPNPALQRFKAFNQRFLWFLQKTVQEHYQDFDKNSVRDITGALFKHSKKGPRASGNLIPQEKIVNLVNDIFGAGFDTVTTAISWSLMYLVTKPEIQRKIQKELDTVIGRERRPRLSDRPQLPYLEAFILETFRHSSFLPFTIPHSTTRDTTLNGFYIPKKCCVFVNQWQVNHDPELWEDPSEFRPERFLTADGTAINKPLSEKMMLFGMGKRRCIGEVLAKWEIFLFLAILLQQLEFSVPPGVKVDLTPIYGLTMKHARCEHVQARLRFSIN

[15] = target: Cytochrome P450 3A4 (Homo sapiens, UniProt P08684); assay: Inhibition of CYP3A4 (unknown origin) using midazolam as substrate; assay type: ADME
Chain of Cytochrome P450 3A4 (P08684 whole entry): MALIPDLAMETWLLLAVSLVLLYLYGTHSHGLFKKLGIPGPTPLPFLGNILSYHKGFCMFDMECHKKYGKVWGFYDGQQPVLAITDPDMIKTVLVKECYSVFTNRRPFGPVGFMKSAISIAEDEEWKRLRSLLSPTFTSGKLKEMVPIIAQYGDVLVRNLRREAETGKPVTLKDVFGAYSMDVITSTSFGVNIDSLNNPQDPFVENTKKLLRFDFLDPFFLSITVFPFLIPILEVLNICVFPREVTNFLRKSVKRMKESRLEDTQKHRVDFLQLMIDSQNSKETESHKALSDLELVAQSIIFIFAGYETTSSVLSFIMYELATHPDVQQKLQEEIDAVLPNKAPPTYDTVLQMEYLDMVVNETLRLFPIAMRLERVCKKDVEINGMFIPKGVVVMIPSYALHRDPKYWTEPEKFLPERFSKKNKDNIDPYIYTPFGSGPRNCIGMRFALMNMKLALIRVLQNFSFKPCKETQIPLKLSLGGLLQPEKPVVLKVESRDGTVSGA

[16] = target: Cytochrome P450 2D6 (Homo sapiens, UniProt P10635); assay: Inhibition of CYP2D6 (unknown origin); assay type: ADME
Chain of Cytochrome P450 2D6 (P10635 whole entry): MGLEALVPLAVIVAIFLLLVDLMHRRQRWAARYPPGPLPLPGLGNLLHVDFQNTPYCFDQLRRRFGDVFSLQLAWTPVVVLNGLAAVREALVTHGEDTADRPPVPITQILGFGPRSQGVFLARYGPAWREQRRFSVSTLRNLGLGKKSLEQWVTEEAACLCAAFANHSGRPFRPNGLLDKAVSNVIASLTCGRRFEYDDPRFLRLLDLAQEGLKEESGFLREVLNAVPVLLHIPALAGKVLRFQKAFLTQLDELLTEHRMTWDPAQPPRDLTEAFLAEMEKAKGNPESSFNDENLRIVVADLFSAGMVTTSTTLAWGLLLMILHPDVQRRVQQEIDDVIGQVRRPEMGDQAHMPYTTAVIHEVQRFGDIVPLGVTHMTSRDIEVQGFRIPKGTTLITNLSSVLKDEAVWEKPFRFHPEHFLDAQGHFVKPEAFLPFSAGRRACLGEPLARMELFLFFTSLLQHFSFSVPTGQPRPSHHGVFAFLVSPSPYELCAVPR

[17] = target: Cytochrome P450 2C19 (Homo sapiens, UniProt P33261); assay: Inhibition of CYP2C19 (unknown origin); assay type: ADME
Chain of Cytochrome P450 2C19 (P33261 whole entry): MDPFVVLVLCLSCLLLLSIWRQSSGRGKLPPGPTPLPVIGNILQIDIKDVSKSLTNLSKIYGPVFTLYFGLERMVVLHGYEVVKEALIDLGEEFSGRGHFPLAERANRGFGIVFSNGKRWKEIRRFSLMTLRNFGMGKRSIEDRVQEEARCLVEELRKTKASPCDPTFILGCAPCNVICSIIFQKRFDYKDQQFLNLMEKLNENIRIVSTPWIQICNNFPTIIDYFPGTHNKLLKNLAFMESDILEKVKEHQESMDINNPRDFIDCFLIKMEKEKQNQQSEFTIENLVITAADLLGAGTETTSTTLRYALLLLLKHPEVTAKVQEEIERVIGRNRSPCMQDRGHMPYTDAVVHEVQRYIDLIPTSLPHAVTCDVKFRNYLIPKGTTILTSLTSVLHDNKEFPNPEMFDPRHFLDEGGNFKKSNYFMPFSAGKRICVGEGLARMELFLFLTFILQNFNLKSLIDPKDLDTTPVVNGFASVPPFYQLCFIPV

Structure (SMILES) | EC50 [1] [nM] | EC50 [2] [nM] | selectivity ratio [3] | selectivity ratio [4] | IC50 [5] [nM] | EC50 [6] [nM] | EC50 [7] [nM] | CC50 at 120 h [8] [µM] | EC50 [9] [nM] | EC50 [10] [nM] | EC50 [11] [nM] | EC50 [12] [nM] | IC50 [13] [µM] | IC50 [14] [µM] | IC50 [15] [µM] | IC50 [16] [µM] | IC50 [17] [µM]
Cc1cc(/C=C/C#N)cc(C)c1Cc1nc(NC2CCN(Cc3ccc(S(N)(=O)=O)cc3)CC2)ncc1-c1cncnc1 | 37.8 | 13.4 | 299 | 2090 | 117 | 4.52 | 5.02 | 11.3 | 5.4 | 15.3 | 8.21 | 41.9 | – | – | – | – | –
Cc1cc(/C=C/C#N)cc(C)c1Oc1nc(NC2CCN(Cc3ccc(S(N)(=O)=O)cc3)CC2)ncc1-c1ccc(N)cc1 | 23.4 | 8.93 | 185 | 1050 | 97 | 3.23 | 3.85 | 3.81 | 3.64 | 9.02 | 5.37 | 24.9 | – | – | – | – | –
Cc1cc(/C=C/C#N)cc(C)c1Oc1nc(NC2CCN(Cc3ccc(C(N)=O)cc3)CC2)ncc1-c1cccc(N)c1 | 22.4 | 9.11 | 373 | 1480 | 138 | 11 | 5.62 | 8.37 | 5.66 | 16.6 | 10.1 | 51 | – | – | – | – | –
Cc1cc(/C=C/C#N)cc(C)c1Oc1nc(NC2CCN(Cc3ccc(S(C)(=O)=O)cc3)CC2)ncc1-c1ccc(N)cc1 | 34.1 | 7.47 | 198 | 1510 | 159 | 4.68 | 4.92 | 6.74 | 4.46 | 7.8 | 8.09 | 33.2 | – | – | – | – | –
Cc1cc(/C=C/C#N)cc(C)c1Oc1nc(NC2CCN(Cc3ccc(S(N)(=O)=O)cc3)CC2)ncc1-c1cccc(N)c1 | 25.8 | 11.2 | 269 | 1130 | 134 | 7.05 | 6.11 | 6.94 | 6.16 | 11.4 | 103 | 46.5 | – | – | – | – | –
Cc1cc(/C=C/C#N)cc(C)c1Oc1nc(NC2CCN(Cc3ccc(S(N)(=O)=O)cc3)CC2)ncc1-c1cccc(O)c1 | 36.1 | 18.5 | 215 | 1240 | 115 | 11.6 | 5.61 | 7.85 | 6.32 | 25 | 16 | 33 | – | – | – | – | –
Cc1cc(/C=C/C#N)cc(C)c1Oc1nc(NC2CCN(Cc3ccc(S(N)(=O)=O)cc3)CC2)ncc1-c1ccc2c(c1)OCO2 | 47 | 40.5 | 136 | 1170 | 122 | 10.6 | 6.3 | 6.4 | 5.48 | 35.7 | 10.7 | 47.8 | – | – | – | – | –
Cc1cc(/C=C/C#N)cc(C)c1Oc1nc(NC2CCN(Cc3ccc(S(N)(=O)=O)cc3)CC2)ncc1-c1ccc(O)cc1 | 26.1 | 7.65 | 170 | 1160 | 91 | 3.68 | 4.13 | 4.44 | 3.83 | 12.7 | 7.77 | 31.3 | – | – | – | – | –
CC(=O)c1ccc(-c2cnc(NC3CCN(Cc4ccc(S(N)(=O)=O)cc4)CC3)nc2Oc2c(C)cc(/C=C/C#N)cc2C)cc1 | 40.7 | 12 | 198 | 1520 | 130 | 10.8 | 5.18 | 8.09 | 5.34 | 22.6 | 10.2 | 28.5 | – | – | – | – | –
Cc1cc(/C=C/C#N)cc(C)c1Oc1nc(NC2CCN(Cc3ccc(C(N)=O)cc3)CC2)ncc1-c1cccc(O)c1 | 35.2 | 21.1 | 1050 | 8000 | 88 | 11.6 | 5.31 | 36.9 | 4.62 | 13.1 | 9.7 | 39.3 | – | – | – | – | –
Cc1cc(/C=C/C#N)cc(C)c1Oc1nc(NC2CCN(Cc3ccc(C(N)=O)cc3)CC2)ncc1-c1ccc(N)cc1 | 18.9 | 5.05 | 207 | 1140 | 108 | 3.31 | 3.53 | 3.91 | 3.41 | 9.18 | 4.81 | 22.8 | – | – | – | – | –
Cc1cc(/C=C/C#N)cc(C)c1Cc1nc(NC2CCN(Cc3ccc(S(C)(=O)=O)cc3)CC2)ncc1-c1cncnc1 | 14 | 5.95 | 207 | 796 | 104 | 3.14 | 3.6 | 2.9 | 3.65 | 9.14 | 5.45 | 22.1 | 9.58 | > 50 | 6.54 | 25.8 | > 50
Cc1cc(/C=C/C#N)cc(C)c1Oc1nc(NC2CCN(Cc3ccc(C(N)=O)cc3)CC2)ncc1-c1ccc2c(c1)OCO2 | 38.3 | 19.4 | 139 | 1280 | 110 | 8.21 | 5.64 | 5.32 | 4.17 | 46.9 | 9.42 | 58.1 | – | – | – | – | –
